{"source": "paper PMC6005341", "about": "“Identification of “sarsasapogenin-aglyconed” timosaponins as novel Aβ-lowering modulators of amyloid precursor protein processing” (Chemical Science, 2016)", "tested_on": "γ-secretase-mediated cleavage of Notch1", "assay": "Notch cleavage by γ-secretase in N2A-APPswe cells transfected with NotchΔE (immunoblot)", "format": "cell-based", "conditions": "18 h", "protocol": "rabbit antibody (Millipore). The immunoreactivities were detected using enhanced chemiluminescence reagents (GE Health care).\nFor examination of notch cleavage by γ-secretase, N2A-APPswe cells were transfected with myc-tagged NotchΔE construct (pSC2 EMV-6MT, provided by Prof. Raphael Kopan, Washington University, St. Louis, MO) using Fugene HD (Roche). Cells were then treated with timosaponins for 18 h and the expression of NotchΔE and NICD were examined by immunoblot analysis using myc-tagged antibodies.\nAβ ELISA: Aβ concentrations in conditioned medium were assayed using ELISA kits for human Aβ40, human Aβ42 (ultrasensitive) (Invitrogen), human Aβ38 (MyBioSource) (in N2A-APPswe cells) or Wako High Sensitive Aβx-42 ELISA kit (in Rat primary cortical neuron culture). The viability of the N2A-APPswe and Primary cortical neurons were determined by MTT and LDH release assays, respectively. No significant effect of viability of the neuron […]\nβ-Secretase assays: Confluent N2A-APPswe cells were harvested and homogenized with 50 mM MES, pH5.5. […] The β-secretase activities were assayed by adding 10 µM fluorogenic β-secretase substrate (Millipore) to the reaction mixtures and the fluorescence (excitation, 380; emission, 460) were measured. β-Secretase assays were also performed using purified BACE1 (Millipore) at 100 ng in a buffer containing 50 mM MES, pH 5.5. […]"}
{"smiles": "C[C@H](NC(=O)Cc1cc(F)cc(F)c1)C(=O)N[C@H](C(=O)OC(C)(C)C)c1ccccc1", "note": "[DAPT]", "values": [{"measurement": "production of NICD", "value": "completely blocked"}]}
